Values quoted from earlier work in PubChem BioAssay AID1259409 (Chemical Carcinogenesis Research Information System (CCRIS), 2018).

Tested on: rodent chemically induced tumor inhibition, incidence and multiplicity
Test: CCRIS tumor inhibitor studies
Conditions: Route [Inhibitor]: ORAL, Species: RAT

For `CCCCCCOc1cc(C)c(O)c(C)c1C`, the “tumour outcome (control, treated, inhibition, significance)” value (Carcinogen: 1,2-DIMETHYLBHYDRAZINE [540-73-8], Dose [Inhibitor]: 0.5% IN DIET FOR 32 WK BEGINNING 1 WK POST LAST CARCINOGEN DOSE (STUDY DURATION: 36 WK), Strain/Sex: F344/MALE, Target Tissue: Type of Lesion: COLON: ADENOMA OR CARCINOMA, Dose [Carcinogen]: 40 MG/KG BW 1X/WK FOR 4 WK (STUDY DURATION: 36 WK), Promoter: 2-AMINO-1-METHYL-6-PHENYLIMIDAZO[4,5-B]PYRIDINE [105650-23-5]) is listed as 20/21 (95%), 19/19 (100%), -5%, not significant, the “tumour outcome (control, treated, inhibition, significance)” value (Carcinogen: 2-AMINO-1-METHYL-6-PHENYL-1H-IMIDAZO[4,5-B]PYRID INE, 105650-23-5, Dose [Inhibitor]: 0, 0.5% IN THE DIET FOR 52 WK (STUDY DURATION: 52 WK), Strain/Sex: F344/FEMALE, Target Tissue: Type of Lesion: MAMMARY GLAND: ADENOCARCINOMA FIBROADENOMA, Dose [Carcinogen]: 0.02% IN THE DIET FOR 52 WK, Promoter: NONE USED) is listed as 2/20 (10%), 0/21 (0%), 100%, not significant and the “tumour outcome (control, treated, inhibition, significance)” value (Carcinogen: 2-AMINO-1-METHYL-6-PHENYL-1H-IMIDAZO[4,5-B]PYRID INE, 105650-23-5, Dose [Inhibitor]: 0, 0.5% IN THE DIET FOR 52 WK (STUDY DURATION: 52 WK), Strain/Sex: F344/FEMALE, Target Tissue: Type of Lesion: MAMMARY GLAND: ADENOCARCINOMA, Dose [Carcinogen]: 0.02% IN THE DIET FOR 52 WK, Promoter: NONE USED) is listed as 8/20 (40%), 1/21 (5%), 88%, p< 0.01. The “tumour outcome (control, treated, inhibition, significance)” value (Carcinogen: 2-AMINO-1-METHYL-6-PHENYLIMIDAZO[4,5-B]PYRIDINE, 105650-23-5, Dose [Inhibitor]: 0, 0.5% IN DIET FOR 52 WK CONCURRENTLY WITH CARCINOGEN TREATMENT (STUDY DURATION: 52 WK), Strain/Sex: F344/FEMALE, Target Tissue: Type of Lesion: LARGE INTESTINE: ADENOMA OR CARCINOMA, Dose [Carcinogen]: 0.02% IN DIET FOR 52 WK, Promoter: NONE USED) was 2/18 (11%), 0/21 (0%), 100%, not calculated, the “tumour outcome (control, treated, inhibition, significance)” value (Carcinogen: 2-AMINO-1-METHYL-6-PHENYLIMIDAZO[4,5-B]PYRIDINE, 105650-23-5, Dose [Inhibitor]: 0, 0.5% IN DIET FOR 52 WK CONCURRENTLY WITH CARCINOGEN TREATMENT (STUDY DURATION: 52 WK), Strain/Sex: F344/FEMALE, Target Tissue: Type of Lesion: MAMMARY GLAND: ADENOCARCINOMA, Dose [Carcinogen]: 0.02% IN DIET FOR 52 WK, Promoter: NONE USED) was 8/20 (40%), 1/21 (5%), 88%, p<0.01 and the “tumour outcome (control, treated, inhibition, significance)” value (Carcinogen: DIETHYLNITROSAMINE, 55-18-5, N-METHYL-N-NITROSOUREA, 684-63-5, N-BUTYL-N-(4-HYDROXYBUTYL)NITROSAMINE, 3817-11-6, DIMETHY, Carcinogen: DIETHYLNITROSAMINE, 55-18-5, N-METHYL-N-NITROSOUREA, 684-63-5, N-BUTYL-N-(4-HYDROXYBUTYL)NITROSAMINE, 3817-11-6, DIMETHY, Dose [Inhibitor]: 0, 1% IN THE DIET FOR 30 D BEGINNING 1 D PRIOR TO CARCINOGEN TREATMENT (STUDY DURATION: 28 WK), Strain/Sex: F344/MALE, Target Tissue: Type of Lesion: SMALL INTESTINE: CARCINOMA, Dose [Carcinogen]: 100 MG/KG BW DEN ONCE FOLLOWED BY 20 MG/KG BW MNU 4 TIMES AND 0.05% BBN IN DRINKING WATER DURING FIRST 2 WK THEN 40 MG/K, Promoter: NONE USED) was 7%, 14%, -100%, not significant. For the same compound, the “tumour outcome (control, treated, inhibition, significance)” value (Carcinogen: DIETHYLNITROSAMINE, 55-18-5, N-METHYL-N-NITROSOUREA, 684-93-5, N-BUTYL-N-(4-HYDROXYBUTYL)NITROSAMINE, 3817-11-6, DIMETHY, Carcinogen: DIETHYLNITROSAMINE, 55-18-5, N-METHYL-N-NITROSOUREA, 684-93-5, N-BUTYL-N-(4-HYDROXYBUTYL)NITROSAMINE, 3817-11-6, DIMETHY, Dose [Inhibitor]: 0, 1% IN THE DIET FOR 24 MO BEGINNING 1 DAY POST CARCINOGEN TREATMENT (STUDY DURATION: 28 WK), Strain/Sex: F344/MALE, Target Tissue: Type of Lesion: LARGE INTESTINE: CARCINOMA, Dose [Carcinogen]: 100 MG/KG BW DEN ONCE FOLLOWED BY 20 MG/KG BW MNU 4 TIMES AND 0.05% BBN IN DRINKING WATER DURING FIRST 2 WK THEN 40 MG/K, Promoter: NONE USED) was 7%, 7%, 0%, not significant, the “tumour outcome (control, treated, inhibition, significance)” value (Carcinogen: DIETHYLNITROSAMINE, 55-18-5, N-METHYL-N-NITROSOUREA, 684-93-5, N-BUTYL-N-(4-HYDROXYBUTYL)NITROSAMINE, 3817-11-6, DIMETHY, Carcinogen: DIETHYLNITROSAMINE, 55-18-5, N-METHYL-N-NITROSOUREA, 684-93-5, N-BUTYL-N-(4-HYDROXYBUTYL)NITROSAMINE, 3817-11-6, DIMETHY, Dose [Inhibitor]: 0, 1% IN THE DIET FOR 24 WK BEGINNING 1 D POST CARCINOGEN TREATMENT (STUDY DURATION: 28 WK), Strain/Sex: F344/MALE, Target Tissue: Type of Lesion: URINARY BLADDER: PAPILLOMA, Dose [Carcinogen]: 100 MG/KG BW DEN ONCE FOLLOWED BY 20 MG/KG BW MNU 4 TIMES AND 0.05% BBN IN DRINKING WATER DURING FIRST 2 WK THEN 40 MG/K, Promoter: NONE USED) was 7%, 0%, 100%, not significant and the “tumour outcome (control, treated, inhibition, significance)” value (Carcinogen: DIETHYLNITROSAMINE, 55-18-5, N-METHYL-N-NITROSOUREA, 684-93-5, N-BUTYL-N-(4-HYDROXYBUTYL)NITROSAMINE, 3817-11-6, DIMETHY, Carcinogen: DIETHYLNITROSAMINE, 55-18-5, N-METHYL-N-NITROSOUREA, 684-93-5, N-BUTYL-N-(4-HYDROXYBUTYL)NITROSAMINE, 3817-11-6, DIMETHY, Dose [Inhibitor]: 0, 1% IN THE DIET FOR 24 WK BEGINNING 1 DAY POST CARCINOGEN TREATMENT (STUDY DURATION: 28 WK), Strain/Sex: F344/MALE, Target Tissue: Type of Lesion: LARGE INTESTINE: ADENOMA, Dose [Carcinogen]: 100 MG/KG BW DEN ONCE FOLLOWED BY 20 MG/KG BW MNU 4 TIMES AND 0.05% BBN IN DRINKING WATER DURING FIRST 2 WK THEN 40 MG/K, Promoter: NONE USED) was 27%, 0%, 100%, p<0.05.
